In publication PMC6013495, “Development of a Novel Backbone Cyclic Peptide Inhibitor of the Innate Immune TLR/IL1R Signaling Protein MyD88” (Scientific Reports, 2018):
Each block holds one molecule with its values, some of them ahead of it. Numbered stars: 1 amine (or outer) side, 2 acyl side, 3 side chain; on linkers, the order of the positions; unused ones are H or OH. Bridge positions count the residues as written; N and C are the ends. Square brackets hold non-standard residues; d marks the D form. Ends that are not written are not given here. Peptide text beside a SMILES is read from it. N(6-aminohexyl)Gly = O=C(CN(CCCCCCN[*:3])[*:1])[*:2]; CO = O=C([*:1])[*:2]; Nlys = NCCCCNCC(=O)O

Experiments:
THP-1 macrophages = assay type: cell-based, human
Source text: MyD88 function depends on dimerization through the TIR domain[37]. The RDVLPGT peptide corresponds to the region between the βB strand and the αB helix[18] […] We screened a library of backbone cyclized peptides to identify a metabolically stable derivative of the BB loop peptide that retains the binding and functional properties of the parent peptide. The library was designed using two non-natural building blocks as previously reported. The method, called cycloscan, is based on the concept of screening focused backbone cyclic libraries with spatial diversity that maintain the original side chains of the active region in the protein (RDVLPGT), Backbone cyclization combines N-alkylation with cyclization. In the case of the MyD88 BB-loop decoy peptide RDVLPGT, the tertiary amide bond preceding proline served as one of the anchor sites and was therefore replaced by an N-Alkylated glycine building unit (AGBU) to allow backbone cyclization to the second AGBU at the N-terminus (Fig. 1). Tryptophan was added to the N-terminal AGBU for quantification purposes (Fig. 1). Following the above procedure 16 backbone cyclic peptides were prepared with various ring size and position of the urea bridge in the ring (Table S1). To screen the library, human THP-1 macrophages were pre-treated with the cyclic peptides and then stimulated with Pam3CSK4, a synthetic TLR2/1 lipopeptide agonist.

[1] = Peptide stability in rat plasma; assay type: in vitro ADME; conditions: fresh plasma of male Wistar rats, 37 °C, HPLC-MS, triplicate; for stability in plasma: 10 µg/ml, up to 240 min
Description: (§1) The linear peptide and c(MyD 4-4) (10 µg/ml) were mixed with fresh plasma from male Wistar rats (Harlan, Israel) and incubated at 37 °C for 240 min. Triplicate samples were taken at time 0 and after 5, 30, 60, 120, 180 and 240 min. Rat brush border membrane vesicles (BBMV) were prepared by Ca^2+ precipitation from the combined duodenum, jejunum, and upper ileum of male rats as described[41],[42]. Briefly, intestines were washed with ice cold saline and separated from mucus. The intestinal mucosa was separated from the luminal surface and placed immediately into buffer containing […] KCl and 10 mM Tris–HCl (pH 7.5, 4 °C). The samples were then homogenated (Polytron PT 1200, Kinematica AG, Switzerland) and 10 mM CaCl2 was added. The homogenate was placed on a shaker for 30 min at 4 °C and then centrifuged 10,000 g for 10 min. The supernatant was separated and centrifuged at 48,000 g for 30 min and an additional two purification steps were undertaken by suspending the pellet in 300 mM mannitol and 10 mM Hepes/Tris (pH 7.5) and centrifuging at 24,000 g/h. The quality of the BBMV purification was tested using the brush border membrane enzyme markers gamma-glutamyl transpeptidase (GGT), leucine amino peptidase (LAP) and alkaline phosphatase (Sigma-Aldrich, St Louis, MO). Peptides were mixed with purified BBMVs in MES buffer (2-(N-morpholino)ethanesulfonic acid, 50 mM pH 7.4) and incubated at 37 °C for 120 min. Triplicate samples were taken at time 0 and after 15, 30, 45, 60, 90, and 120 min.
To determine the concentration of the compounds, experimental samples were diluted 1:1 with ice-cold acetonitrile and centrifuged (11000 RPM, 10 min). The supernatant was separated and evaporated (Vacuum Evaporation System, Labconco, Kansas City, MO). Samples were reconstituted with acetonitrile: water 70:30 and then centrifuged (11000 RPM, 10 min). The amount of the compounds was determined using high performance liquid chromatography mass spectrometry (HPLC-MS) Waters 2695 Separation Module, equipped with Micromass ZQ detector. The resulting solution (100 μl) was injected into the HPLC system. […]

[2] = Peptide stability in brush border membrane vesicles (BBMVs); assay type: in vitro ADME; conditions: rat intestinal BBMVs in MES buffer 50 mM pH 7.4, 37 °C, HPLC-MS, triplicate
Description: as §1, with “The quality of the BBMV purification was tested using the brush border membrane enzyme markers gamma-glutamyl transpeptidase (GGT), leucine amino peptidase (LAP) and alkaline phosphatase (Sigma-Aldrich, St Louis, MO). Peptides were mixed with purified BBMVs in MES buffer (2-(N-morpholino)ethanesulfonic acid, 50 mM pH 7.4) and incubated at 37 °C for 120 min. Triplicate samples were taken at time 0 and after 15, 30, 45, 60, 90, and 120 min.” left out
To determine the concentration of the compounds, experimental samples were diluted 1:1 with ice-cold acetonitrile and centrifuged (11000 RPM, 10 min). […] The amount of the compounds was determined using high performance liquid chromatography mass spectrometry (HPLC-MS) Waters 2695 Separation Module, equipped with Micromass ZQ detector. […]

RAW264.7 NFκB-luc cells = test: Viability of NFκB-luc RAW264.7 cells; assay type: cell-based, mouse; conditions: 24 hr treatment
[3] = tested on: THP-1 cells, TLR4 ligand LPS; test: hTNFα production by THP-1 macrophages stimulated with LPS (TLR4); assay type: cell-based, human; conditions: THP-1, compound 3 hr before LPS, 24 hr, ELISA
Description: Figure 3 c(MyD 4-4) blocks TLR-mediated macrophage activation. (A) THP-1 cells were treated with inhibitors for 3 hr prior to activation with the TLR2 ligand Pam3CSK4 200 pg/ml for 24 h. hTNFα levels were determined by ELISA. One representative experiment of three independent experiments is shown. Asterisks represent the significance between treated cells and untreated Pam3CSK4-stimulated control. Asterisks above a cross bar represent the comparison between treatment with c(MyD 4-4) and treatment with MyDI. (B,C) Luminescence levels from the NFκB-luc murine RAW264.7 cells. The different conditions were set according to preliminary assays of each cell line. NFκB-luc RAW264.7 cells were treated with inhibitors for 24 hr and then cells were stimulated with Pam3CSK4 (10 ng/ml) (C) or LPS (50 ng/ml) (D) for 4 hr and luminescence levels were determined. One representative experiment of three independent experiments is shown. […] Human (h) TNFα levels were determined by ELISA at 24 hr. (F,G) NFκB-luc RAW264.7 cells were treated with the indicated compounds for 24 hr and then stimulated with Pam3CSK4 (F) or LPS (G) for 4 hr after which luminescence was determined. […]
(§2) Cytokines were determined using human/mouse OptEIA sets (BD Biosciences, CA, USA) according to the manufacturer’s instructions.

[4] = tested on: THP-1 cells, TLR2 ligand Pam3CSK4; test: hTNFα production by THP-1 macrophages stimulated with Pam3CSK4 (TLR2); assay type: cell-based, human; conditions: THP-1, inhibitors 3 hr before Pam3CSK4, 24 h, ELISA
Description: MyD88 function depends on dimerization through the TIR domain[37]. The RDVLPGT peptide corresponds to the region between the βB strand and the αB helix[18] […] We screened a library of backbone cyclized peptides to identify a metabolically stable derivative of the BB loop peptide that retains the binding and functional properties of the parent peptide. The library was designed using two non-natural building blocks as previously reported. […] Tryptophan was added to the N-terminal AGBU for quantification purposes (Fig. 1). […]
Figure 3 c(MyD 4-4) blocks TLR-mediated macrophage activation. (A) THP-1 cells were treated with inhibitors for 3 hr prior to activation with the TLR2 ligand Pam3CSK4 200 pg/ml for 24 h. hTNFα levels were determined by ELISA. […] (B,C) Luminescence levels from the NFκB-luc murine RAW264.7 cells. […] NFκB-luc RAW264.7 cells were treated with inhibitors for 24 hr and then cells were stimulated with Pam3CSK4 (10 ng/ml) (C) or LPS (50 ng/ml) (D) for 4 hr and luminescence levels were determined. […] Human (h) TNFα levels were determined by ELISA at 24 hr. (F,G) NFκB-luc RAW264.7 cells were treated with the indicated compounds for 24 hr and then stimulated with Pam3CSK4 (F) or LPS (G) for 4 hr after which luminescence was determined. […]
as §2

[5] = target: T1, recombinant fusion protein SUMO-MyD88-TIR (human MyD88 TIR domain, aa 150-296, fused to SUMO) (human, UniProt Q99836 150-296); test: ELISA; SUMO fusion protein attached to ELISA plate wells; biotinylated peptide added at several concentrations; conditions: both partners purified
T1 construct: MyD88, human, TIR domain residues 150-296; Cloned with BamH/XhoI into the pETM-11 SUMO3GFP fusion vector; also called recombinant MyD88 TIR domain; Recombinant MyD88 TIR protein; source: E. coli BL21 C43 (DE3), purified (HIS-select Nickel Magnetic agarose beads, eluted with 300 mM imidazole)

[6] = target: T1, recombinant fusion protein …; test: ELISA; competitive binding: SUMO-MyD88-TIR (8 µg/ml) attached to polystyrene plates at 4 °C overnight, blocked with 1% BSA in PBS; 125 µM Biotin-MyDI together with 10, 1, 0.1 or 0 µM competitor for 30 min; Streptavidin-HRP, absorbance at 450 nm; conditions: both partners purified

T1 sequence (Q99836 150-296): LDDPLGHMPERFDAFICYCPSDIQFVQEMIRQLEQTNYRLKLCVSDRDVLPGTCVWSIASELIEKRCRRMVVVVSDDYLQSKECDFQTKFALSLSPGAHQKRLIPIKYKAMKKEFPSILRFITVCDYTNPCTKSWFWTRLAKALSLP

Molecule: CC(C)C[C@@H]1NC(=O)[C@H](C(C)C)NC(=O)[C@H](CC(=O)O)NC(=O)[C@H](CCCNC(=N)N)NC(=O)CN(C(=O)[C@@H](N)Cc2c[nH]c3ccccc23)CCCCCCNC(=O)NCCCCCCN(CC(=O)NCC(=O)N[C@H](C(N)=O)[C@@H](C)O)C1=O [c(MyD6x6)] (H-W[N(6-aminohexyl)Gly]RDVL[N(6-aminohexyl)Gly]GT-NH2; linker 2-7 via CO)
- cytotoxicity (THP-1 macrophages): without causing cytotoxicity

Molecule: NC(=O)[C@H]1CCS[C@@H]2C[C@]3(CCCN3C(=O)Cc3ccc(NC(=O)COc4ccc(Cl)cc4Cl)cc3)C(=O)N12 [ST2825]
- cytotoxicity (RAW264.7 NFκB-luc cells): highly cytotoxic
- inhibition of hTNFα production [3]: did not block
- inhibition of hTNFα production [4]: did not block

Molecule: CC(C)C[C@@H]1NC(=O)[C@H](C(C)C)NC(=O)[C@H](CC(=O)O)NC(=O)[C@H](CCCNC(=N)N)NC(=O)CN(C(=O)[C@@H](N)Cc2c[nH]c3ccccc23)CCCCNC(=O)NCCCCN(CC(=O)NCC(=O)N[C@H](C(N)=O)[C@@H](C)O)C1=O [c(MyD 4-4)] (H-W[Nlys]RDVL[Nlys]GT-NH2; linker 2-7 via CO)
- cytotoxicity (THP-1 macrophages): without causing cytotoxicity
- stability in plasma [1]: highly stable
- remaining at 4 h, 10 µg/ml ([1]; rat, 240 minutes, mean, read-out: starting material detected after incubation in plasma): > 90%
- remaining at 2 h ([2]; male, intestinal brush border membrane vesicles (BBMVs), 2 h, mean, read-out: peptide recovered at end of incubation with BBMVs): ~80%

Results, then the molecule that gave them:

- stability in plasma [1]: rapidly degraded
- stability with BBMVs ([2]; up to 120 min): rapidly degraded
Molecule: RDVLPGT-NH2 [MyDI]

- binding result [5]: binds
B1: Biotinylated linear BB loop peptide RDVLPGT (Biotin-MyDI) (peptide)
peptide: RDVLPGT
modifications: also: biotinylated, position not given here
notes: MyD88 BB loop heptamer; also called Biotinylated RDVLPGT; source: bought: Bio Basic Inc

- binding result [6]: binds
B2: MyD88 inhibitor peptide (MyDI, RDVLPGT), unlabeled linear BB loop peptide (peptide)
peptide: RDVLPGT-NH2
notes: MyD88 BB loop heptamer; also called non-biotinylated linear peptide; MyD88 BB-loop decoy peptide; source: synthetic peptide (Fmoc chemistry on Rink amide MBHA resin, HPLC purified)
